# Source: patent US4616015A, “Triazine derivatives, and pharmaceutical compositions comprising the same” (Fujisawa Pharmaceutical Co., Ltd., priority 1983, dated 1986)
# Counter-ions that a name gives are not always drawn.
# Tests used:
# blood pressure = assay: Antihypertensive activity (test A): maximum decrease of blood pressure in uninephrectomized DOCA/saline hypertensive rats, oral; type: in vivo, male Wister rats
# Procedure: Five-week old male Wister rats were uninephrectomized under anesthesia. Deoxycorticosterone acetate (DOCA) (30 mg/kg), suspended in peanut oil, was injected subcutaneously twice a week and 1% saline was substituted for the drinking water. Animals with mean blood pressure 150-200 mmHg were used for experiment between 5 and 7 weeks after surgery.
# The test compounds were administered orally. Blood pressure was measured at the femoral artery by means of a pressure transducer and recorded as electrically integrated values of mean arterial pressure.
# ethanol ulcer = assay: Ethanol ulcer, area of ulcers (test C); type: in vivo, male Sprague-Dowley rats; details: dose c: 32 mg/kg, oral, 30 minutes before ethanol
# Procedure: Five male Sprague-Dowley rats, aged 7 weeks and weighing about 200 g, were used per group for the study on ethanol ulcer after the fast for 24 hours.
# Test compound was suspended in 0.1% methylcellulose aqueous solution, and the suspension (5 ml/kg) was orally given to each rat.
# The control group was given a vehicle, i.e. 0.1% methylcellulose aqueous solution (5 ml/kg), alone in the same way.
# Absolute ethanol (5 ml/kg) was orally administered 30 minutes after dosing with test compound, and one hour later, the rats were sacrificed and their stomachs were removed. The area of ulcers of each rat was measured. The mean area (mm^2) in the medicated group was compared with that in the control group.
# platelet aggregation [1] = assay: Inhibition of platelet aggregation induced by ADP, platelet rich plasma (test B); type: cell-based; details: Oryctolagus cuniculus, inducer ADP (2.5 μM), rabbit PRP, 37° C., read-out: ID50, platelet aggregation, ADP
# Procedure: (§1) Platelet rich plasma (PRP) which contains 6.5-7.5×10^8 platelet/ml was prepared from rabbit blood. To the 200 μl of PRP, 5 μl of calcium chloride (1 mM) and 50 μl of pH 7.4 Tris-acetate solution (5 mM) containing 120 mM NaCl and test compound were added successively, and then stirred for 2 min. at 37° C. To the solution, 5 μl of adenosine diphosphate (ADP) (2.5 μM) or collagen (2.5 μg/ml) was added as an aggregation inducer. Aggregation was measured by using an aggregometer (NKK HEMA TRACER 1).
# platelet aggregation [2] = assay: Inhibition of platelet aggregation induced by collagen, platelet rich plasma (test B); type: cell-based; details: Oryctolagus cuniculus, inducer collagen (2.5 μg/ml), rabbit PRP, 37° C., read-out: ID50, platelet aggregation, collagen
# Procedure: as §1
Structure (SMILES),Effect Max (mean ratio of maximum decrease of blood pressure) (blood pressure; dose a: 0.1 mg/kg) [%],Effect Max (mean ratio of maximum decrease of blood pressure) (blood pressure; dose b: 1 mg/kg) [%],Effect Max (ulcer area vs control) (ethanol ulcer) [%],IC50 (platelet aggregation [1]) [nM],IC50 (platelet aggregation [2]) [nM]
"CC1NC(=O)NN=C1c1ccc(NC(=O)CN)cc1 (stereo not drawn) [Example 29, 6-(4-glycyclaminophenyl)-5-methyl-4,5-dihydro-1,2,4-triazin-3(2H)-one hydrochloride]",11.1,47.5,–,–,–
"CC1NC(=O)NN=C1c1ccc(NC(=O)CCC(=O)O)cc1 (stereo not drawn) [13-(4), Sodium 3-[4-(3-methyl-4,5-dihydro-3(2H)-oxo-1,2,4-triazin-6-yl)phenylcarbamoyl]propionate]",–,–,67.0,–,–
"C=CC(=O)Nc1ccc(C2=NNC(=O)NC2C)cc1 (stereo not drawn) [22-(1), 6-(4-Acryloylaminophenyl)-5-methyl-4,5-dihydro-1,2,4-triazin-3(2H)-one]",–,–,–,68,16
"CC1NC(=O)NN=C1c1ccc(NCCCN)cc1 (stereo not drawn) [21-(1), 6-[4-(3-aminopropylamino)phenyl]-5-methyl-4,5-dihyro-1,2,4-triazin-3(2H)-one]",–,–,–,190,47
"CC1NC(=O)NN=C1c1ccc(NC(=O)[C@@H](C)O)cc1 (stereo partly drawn) [13-(3), 6-(4-D-Lactoylaminophenyl)-5-methyl-4,5-dihydro-1,2,4-triazin-3(2H)-one]",22,50,–,320,150
"CC(Cl)C(=O)Nc1ccc(C2=NNC(=O)NC2C)cc1 (stereo not drawn) [5-(7), 6-[4-(2-Chloropropionylamino)phenyl]-5-methyl-4,5-dihydro-1,2,4-triazin-3(2H)-one]",18.7,51.8,–,–,–
"CC(=O)C(=O)Nc1ccc(C2=NNC(=O)NC2C)cc1 (stereo not drawn) [5-(19), 6-(4-Pyruvoylaminophenyl)-5-methyl-4,5-dihydro-1,2,4-triazin-3(2H)-one]",–,–,–,110,5.3
